Assay results reported in US20170274014A1, “COMBINATIONS OF LOW, IMMUNE ENHANCING, DOSES OF MTOR INHIBITORS AND CARS” (Novartis AG, priority 2014, published 2017).

Experiments:
influenza = details: mice vaccinated against influenza in the presence of rapamycin; cited from earlier work
[1] = mice; cited from earlier work
influenza vaccination = details: elderly mice, 6 weeks of treatment; cited from earlier work
[2] = old mice; cited from earlier work
[3] = test system: NFAT inducible promoter driven luciferase activity; format: cell-based; details: PDL1-Fc coated plate as compared to control treatment by IgG1-Fc; Jurkat JNL cells
Method: Jurkat cells with NFAT-LUC reporter (JNL) were grown to the density of 0.5×10^6/ml in Jurket cell growth media with puromycin at 0.5 μg/ml. For each transfection 3×10^6 cells were spin down at 100 g for 10 minutes. Four μg DNA per construct were used per transfection. Amaxa Nucleofector solution V and supplement I was mixed and 100 μl was added into the tube with DNA construct. The mixture was then added to the cells and transferred to the electroporation cuvette. Electroporation was done under setting X-001 using Amaxa Nucleofector II Device. 0.5 ml of growth media was added immediately after electroporation and the mixture were transferred into 2 ml growth media in one well of the 6-well plate. After two hours, the rapalogue compound at various concentrations was added to cells. The cells were applied to tissue culture plate wells that were coated by the target. Tissue culture plate was coated with 5 μg/ml of PDL1-Fc or IgG1-Fc or any target for 2 hrs at 37° C., then blocked with the blocking buffer (DPBS with 5% serum) for 30 minutes. The transfected cells were added to the target plate with 100 μl per well and incubated further for 16 hrs. Luciferase One Glo reagent 100 μl was added per well. The samples were incubated for 5 min at 37° C. and then luminescence is measured using Envision plate reader.

mTOR = mTOR (Homo sapiens, UniProt P42345); details: low concentration; cited from earlier work
PI3K/mTOR = details: relatively higher concentrations; cited from earlier work

CO[C@H]1C[C@@H]2CC[C@@H](C)[C@@](O)(O2)C(=O)C(=O)N2CCCC[C@H]2C(=O)O[C@H]([C@H](C)C[C@@H]2CC[C@@H](O)[C@H](OC)C2)CC(=O)[C@H](C)/C=C(\C)[C@@H](O)[C@@H](OC)C(=O)[C@H](C)C[C@H](C)/C=C/C=C/C=C/1C [rapamycin]
Serologic response to influenza as compared to placebo (influenza): broader serologic response
Lifespan [1]: extend lifespan
Response to influenza vaccination (influenza vaccination): improved response to influenza vaccination
Spontaneous physical activity [2]: increases spontaneous physical activity

PD1 CAR: CAR construct PD1-ECD-TM-4-1BB-CD3zeta, SEQ ID NO: 26
Activation of NFAT inducible promoter driven luciferase activity [3]: significant PD1 induced activation

Cn1c(=O)n(-c2ccc(C(C)(C)C#N)cc2)c2c3cc(-c4cnc5ccccc5c4)ccc3ncc21 [BEZ235, 2-methyl-2-[4-(3-methyl-2-oxo-8-quinolin-3-yl-2,3-dihydro-imidazo[4,5-c]quinolin-1-yl)-phenyl]-propionitrile]
concentration at which mTOR inhibition predominates (mTOR): less than 100 nmol/L
concentration giving dual PI3K/mTOR inhibition (PI3K/mTOR): approximately 500 nmol/L
